Assay results reported in US10709769B2, “Use of endostatin peptides for the treatment of fibrosis” (University of Pittsburgh—Of the Commonwealth System of …, priority 2009, dated 2020).

Legend:
[1] = tested on: human primary lung fibroblasts; experiment: FN and Col1α1 western blot in TGF-β-treated primary lung fibroblasts; assay type: cell-based; details: normal human lung fibroblasts; TGF-β 10 ng/ml 24 h, then 5 μg/ml rE or peptide 48 h; vs TGF-β alone
Description: Human primary lung and skin fibroblasts were cultured. The explanted lungs of normal organ donors, patients with SSc or IPF, and clinically involved skin of SSc patients, a morphea patient and healthy donors were used for primary fibroblast culture. Approximately 2-cm pieces of peripheral lung and skin were minced and fibroblasts were cultured in Dulbecco's modified Eagle's medium (DMEM; Mediatech, Herndon, Va.) supplemented with 10% FBS, penicillin, streptomycin, and anti-mycotic agent, as previously described (Feghali et al., Arthritis Rheum 1999; 42:1451-7). All the cells were used between passages 3-6.
Cellular lysates were obtained from cultured fibroblasts as previously described (Pilewski et al., Am J Pathol 2005; 166:399-407). Briefly, 2.0×10^5 primary fibroblasts were cultured in 35-mm wells in 0.5% FBS-containing medium supplemented with 10 ng/ml of human recombinant TGF-β or PBS as vehicle control for 24 h, following which 5 μg/ml of human rE, endostatin peptides (E1-E4), or DMSO (vehicle) was added for 48 h. In some experiments, endostatin peptides were used without TGF-β stimulation. Cellular lysates were analyzed by western blot. Signals were detected following incubation with horseradish peroxidase-conjugated secondary antibody and chemiluminescence (Perkin Elmer Life Sciences, Inc., Boston, Mass.). The intensity of individual bands with expected molecular sizes was semi-quantitatively analyzed using the image/J® software available at on the internet (/rsb.info.nih.gov/ij/index.html), and normalized to individual GAPDH intensity.
To evaluate whether endostatin modulates production of ECM components in fibroblasts, FN and Col1α1 expression was examined in normal human lung fibroblasts by western blot analysis. Cells were treated with 5 µg/ml rE for 48 h with or without pre-stimulation with human TGF-β for 24 h. […] To define the functional domain of endostatin that mediates its inhibitory effect, four different peptides were synthesized corresponding to different regions of endostatin (Table 1).

lysyl oxidase (LOX) = experiment: TGFβ-induced LOX production in primary human lung fibroblasts; assay type: cell-based; details: normal lung fibroblasts passage 4, TGF-β followed 30 minutes later by E4, 48 hrs
Description: FIG. 13. E4 reduces fibrosis in vitro by blocking TGFβ-induced LOX production in primary human lung fibroblasts. Normal lung fibroblasts in passage 4 were treated with vehicle, E4, TGFbeta, or TGFbeta followed 30 min. later by E4. Media conditioned by the fibroblasts were analyzed using Western blot analysis after 48 hour. Lane 1: Vehicle (DMSO); Lane 2: E-4; Lane 3: TGF 3; Lane 4: TGF 3 followed by E4.
E4-mediated reduction of LOX was detected also was detected in vitro. Normal lung fibroblasts in passage 4 were treated with vehicle, E4, TGFβ, or TGF-β followed 30 minutes later by E4 (FIG. 13). Media conditioned by the fibroblasts were analyzed using western blot analysis after 48 hrs.

normal lung fibroblasts = experiment: α-SMA levels in TGF-β-stimulated normal lung fibroblasts; assay type: cell-based, human; details: peptide following TGF-β stimulation
Text: FIGS. 1A-1F. ECM production in recombinant endostatin- and endostatin-derived peptide-treated fibroblasts in combination with TGF-β stimulation. A: FN and Col1α1 expression in human normal lung fibroblasts (NL) treated with vehicle (V), rE alone, or both with prior TGF-β stimulation. Proteins were detected western blot. GAPDH was used as a loading control for lysates. B: FN and Col1α1 expression of endostatin polypeptide-treated lung fibroblasts following TGF-β stimulation in primary pulmonary fibroblasts from a healthy control, a patient with SSc, and a patient with IPF. […] Intensity of bands was normalized to that of GAPDH and expressed as a ratio to Vehicle (V). […]
Cellular lysates were obtained from cultured fibroblasts as previously described (Pilewski et al., Am J Pathol 2005; 166:399-407). […] Cellular lysates were analyzed by western blot. Signals were detected following incubation with horseradish peroxidase-conjugated secondary antibody and chemiluminescence (Perkin Elmer Life Sciences, Inc., Boston, Mass.). The intensity of individual bands with expected molecular sizes was semi-quantitatively analyzed using the image/J® software available at on the internet (/rsb.info.nih.gov/ij/index.html), and normalized to individual GAPDH intensity. […]

mouse skin = experiment: TGF-β-induced dermal fibrosis in vivo in mouse skin
Description: FIG. 9. E4 reverses TGF β-induced dermal fibrosis even if administered 3 days following TGF-β.
CB57BL6/J male mice were purchased from The Jackson Laboratory (Bar Harbor, Me.). Human rE (10 μg/ml) or Endostatin peptides (10 μg/ml) in combination with TGF-β (10 ng/ml), or TGF-β alone were injected intradermally on the back of mice in a total volume of 100 μl 1×PBS. Mice were injected in two different skin sites and sacrificed one week post-injection. Skin surrounding the injection site was harvested and fixed in 10% formalin prior to embedding in paraffin.
Six μm sections of paraffin-embedded human and mouse skin tissues were stained with hematoxylin and eosin (H&E). In some experiments, sections were stained with Masson trichrome which identifies collagens. Images were taken on a Nikon Eclipse 800 microscope. The thickness of the dermis was measured in 6 random fields of each section using the image/J® software. Data are shown in arbitrary units.
E4, a peptide representing the carboxy terminus of human endostatin, can attenuate fibrosis triggered by multiple fibrogenic factors. The anti-fibrotic effects of E4 can be detected whether administered concomitantly with or following the fibrogenic trigger. The efficacy of E4 was confirmed in […] pre-clinical models of fibrosis: a) bleomycin-induced dermal fibrosis in vivo in mouse skin, b) TGF-β induced dermal fibrosis in mouse skin, and c) bleomycin-induced pulmonary fibrosis. E4 peptide or a control peptide (E1; representing the amino terminal region of endostatin) were administered at the same time as TGF-β or bleomycin or 3-4 days following TGF-β or bleomycin. Mice were sacrificed one and two weeks after TGF-β-initiation of dermal fibrosis, and two and three weeks after bleomycin-induced pulmonary fibrosis. Two different modes of administration of the E4 peptide were also tested. It was confirmed that intraperitoneal and intratracheal administration was effective. The amount of E4 that was administered ws 10 μg/ml in a total volume of 100 μl for skin and IP injections and 50 μl for IT administration.

Substance: H-^133SYCETWRTEAPSATGQASSLLGGRLLGQSAASCHHAYIVLCIENSFMT^180-CONH2 (H-SYCETWRTEAPSATGQASSLLGGRLLGQSAASCHHAYIVLCIENSFMT-NH2; cysteine pairing not given here; UniProt P39060 1704-1751, looked up, fragment) [E4, amino acids 133-180 of human endostatin; differs from E3 by the presence of a carboxy-terminal amide]
- FN and Col1α1 levels/production [1]: significantly suppressed
- level of LOX (western blot of conditioned media) (lysyl oxidase (LOX)): significantly reduced
- TGF-β-induced α-SMA levels (normal lung fibroblasts): decreased
- TGFbeta induced dermal fibrosis, delayed treatment (mouse skin; TGFβ day 1, peptide IP at day 3, harvested day 7): significant decrease
- TGF-β-induced dermal fibrosis (dermal thickness) (mouse skin; mice, intradermal, 10 μg/ml with TGF-β 10 ng/ml, one week post-injection): prevented
